Molecular target: T1, Fld (flavodoxin from Desulfovibrio gigas) (Megalodesulfovibrio gigas, UniProt Q01095)
T1 construct: native, purified from anaerobically grown D. gigas cells; untagged; 146 residues, 15 kDa; residues 2-146 modelled; homodimer
Assay: X-ray crystal structure of the complex, […] Å
Type: binding
Conditions: non-covalently bound native cofactor, co-purified; crystals at pH 6.5 (bis-Tris, PEG550, CaCl2); semiquinone-like state

T1 sequence (Q01095 whole entry, the tested form may be a part): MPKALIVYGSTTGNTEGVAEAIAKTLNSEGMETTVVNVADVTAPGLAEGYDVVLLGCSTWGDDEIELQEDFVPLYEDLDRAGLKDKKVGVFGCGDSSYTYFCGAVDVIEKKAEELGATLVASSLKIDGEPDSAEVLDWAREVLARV

Cc1cc2nc3c(=O)[nH]c(=O)nc-3n(C[C@H](O)[C@H](O)[C@H](O)COP(=O)(O)O)c2cc1C [FMN, flavin mononucleotide]
X-ray crystal structure of the complex, 1.3 Å: the position of FMN was well defined by the electron density
